# Literature values as cited in US20230257337A1, “METHOD FOR PRODUCING POLYGYLCEROL ESTERS OF POLYCARBOXYLIC ACIDS ESTERIFIED WITH OXOBUTANOL” (IOI Oleo GmbH, priority 2020, published 2023).
# Conditions: even if several grams are taken
smiles,measurement,value
CC(O)CC(=O)O (stereo not shown) [3-hydroxybutyric acid],duration of ketosis,about three to four
